Data on two compounds can be found in US5411965A, “Use of delta opioid receptor antagonists to treat cocaine abuse” (Arizona Board of Regents, priority 1993, dated 1995).

The structures appear in SMILES notation. Entries after “also recorded” stand apart in the source; their conditions may differ. Read-outs that look alike come from different tables or passages of the source.

Test [1] has as its target mu opioid receptor. To be noted: agonist morphine in GPI; antagonist 100 or 200 nM, 15 min; read-out: Ke; cited from earlier work.
Test [2] concerns delta opioid receptor. Kind of test: In vivo antagonism of DSLET antinociception (writhing). Set-up: species or system mice. To be noted: 20 mg/kg s.c.; in words. Here is the method: When mice are injected with an irritant, they respond by a characteristic writhing that can be inhibited by analgesics. Consequently, the writhing response can be used to index the effects of particular opioids.
In general terms: An intraperitoneal irritant provokes the stretching counted in writhing tests.

The format of test [3] is in vivo, rats. As to conditions: for pressing for brain stimulation, NTI plus MDMA: in words; for pressing for brain stimulation, cocaine alone: cocaine (5.0 mg/kg in Example 5). An excerpt:
When rats are fixed with chronically indwelling bipolar electrodes for electrical stimulation of the medial forebrain bundle, they will press levers for brief durations of stimulation. The higher the intensity of stimulation, the greater the pressing. […] These relationships plus extant theory provide the rationale for using pressing for brain stimulation as a means of assessing the reinforcing effects of drugs and assessing which drugs might affect another drug's reinforcing effects.
The particulars of the procedures used herein are briefly summarized. Further information is in Reid (cited above) and Reid et al. (Life Sciences, 52, PL67-71 (1993)). Rats were fixed with chronically indwelling bipolar electrodes. Using standard stereotaxic methods, which includes full anesthesia, the tips of the electrode were aimed to stimulate the medial forebrain bundle as it traverses the lateral hypothalamus. With the skull held in a stereotaxic instrument so that a plane between bregma and lamba was perpendicular to the shaft of the electrode, the following stereotaxic coordinates were used: 3.5 mm posterior to brema, 1.6 mm lateral to the midline, and 8.6 mm below the surface of the skull.
The apparatus of these tests was a Skinner box (24×30 ×38 cm) equipped with a lever (2.5×2 cm). Each box was fixed with electrical leads and a slip-ring apparatus that allowed the rat to be connected to the electrical stimulator for intracranial stimulation, but allowed the rat to move freely in the box.
Upon full recovery from surgery, rats were trained to press a lever in the Skinner box for electrial stimulation of the brain. The electrical stimulation was 60 Hz sine waves of 0.3 sec. The maximum intensity used was of 50 microAmps. Each lever press delivered one 0.3-sec of brain stimulation.
Just after rats learned to press the lever, the intensity of the brain stimulation was varied. Three intensities were chosen. The lowest intensity was one that was barely sufficient to sustain lever pressing. The highest intensity sustained high rates of pressing, but not the highest rates that a rat can achieve. The medium intensity was about midway between the lowest and the highest. Once a set of intensities were established for each rat, those intensities remained fixed throughout the balance of testing. […] Each rat was under a daily regimen. They were allowed to press for each of three intensities of brain stimulation for 10 minutes. […] They were allowed to press the lever under this daily regimen under level-pressing rates became stable. Then, drugs (or placebos) were administered.
The methods of Example 5 were nearly the same as those of Example 4. Rats were fixed, using standard procedures, with chronically indwelling electrodes for stimulation of the medial forebrain bundle. Subsequent to recovery from surgery, they were trained to press for brain stimulation. After each learned to press, they were put on a daily regimen. That daily regimen involved pressing for 5 min at a high intensity of brain stimulation, followed by 5-minute sessions with medium, low, low, medium and then high intensity. Intensities were set for each rat so that pressing rate for the low intensity was rather slow (the low intensity being near lower threshold for maintaining pressing), pressing for the high intensity was at a high rate, and pressing for the medium intensity was between the rate for low and high intensity. Pressing at each intensity was averaged for an index of rat's responsiveness at that intensity.

Test [4] in a line: Conditioned place preference (CPP) test. It counts as in vivo, male Lewis rats. To be noted: for conditioned place preference, cocaine alone: cocaine 15 mg/kg s.c. plus placebo. An excerpt:
Testing associated with conditioning place preference (CPP) procedures involves some rather straightforward assumptions and observations.
To test NTI's ability to block cocaine's ability to establish a CPP, male, Lewis rats were subjected to standard procedures associated with testing for place preferences. The rats were first habituated to being handled.
Then, the rats were put into an alley having two distinctive sides with the barrier separating the two sides not in place, i.e., a baseline preference for the two sides was measured. After baseline was determined, the conditioning procedures began.
The conditioning procedures were the same for all rats, except that there were four different regimens of drug administration, one regimen for each of four different groups of rats (12 rats a group). The conditioning procedure involved one set of kind of injections before a rat was placed in one side of the alley and another set of kind of injections before being placed in the other side.
The group of rats that received the procedures usually used to show a cocaine-produced CPP, received cocaine-injections (plus a placebo injection) before being put into the putative side of conditioning. The dose of cocaine was 15 mg/kg given subcutaneously, a relatively large dose of cocaine. On the next day, this group received placebo injections before being put into the alternative side. These procedures were repeated throughout conditioning.
There was also a group that received placebos (vehicles for both cocaine and NTI) before being placed in either side of the chamber. This is a typical control group and can be used to determine if merely the procedures themselves of handling the rats leads rats to change their preference for a side of the alley.
There was yet another control group. This group received NTI before being placed in the side of putative conditioning and placebos at other times. […] So, the basic conditions for testing a NTI's effects on cocaine's ability to establish a CPP indicative of cocaine's positivity were set.
FIG. 2 depicts the mean percent change from baseline for each of the experimental groups. The group represented by the open bar (far left bar) received only injections of placebos before being put into either side of the apparatus, i.e., this is a placebo control group. […] The striped bar depicts the mean scores of the group that received NTI before being placed into the side of conditioning and saline before being placed into the other side. […] The solid black bar depicts the scores of the group getting cocaine before being put into the side of conditioning (saline or placebo before being put into the other side). […] The cross-hatched bar depicts the mean score of the group treated with cocaine but also receiving NTI.

Test [5] deals with dopamine transporter. As to conditions: in words; cited from earlier work.
The conditions of test [6]: drug alone; literature; cited from earlier work.
The format of test [7] is in vivo, rats. As to conditions: cocaine 0.4 mg/kg a lever press; one-hour session. An excerpt: When rats are fixed with chronically indwelling intravenous catheters, drugs can be administered as the rats are walking around. These same rats can be put into a box equipped with a lever, the depression of which actuates a pump that can deliver drug through the catheter, i.e., the rats can be put into a Skinner box with drug administration a continguency of lever-pressing. […] See J. R. Weeks et al., "Screening for Drug Reinforcement Using Intravenous Self-Administration in the Rat," Bozarth, cited above, at pages 35-44.
Rats were fixed with chronically indwelling catheters for the delivery of doses of cocaine directly into their veins. Subsequently, the rats were trained to press a lever for small bolus injections of cocaine (0.4 mg/kg of cocaine a lever press with an injection volume of 10 microliters of drug plus saline solution, the drug carrier). Rats were given one-hour opportunities daily to press for cocaine.

For `Oc1ccc2c3c1O[C@H]1c4[nH]c5ccccc5c4C[C@@]4(O)[C@@H](C2)N(CC2CC2)CC[C@]314` [Compound 1, 17-(cyclopropylmethyl)-6,7-dehydro-3,14β-dihydroxy-4,5α-epoxy-6,7-2',3'-indolmorphinan], in test [1], the Kb was 29.4 nM. The “blocking of writhing inhibition due to DSLET” value in test [2] is “effectively blocked the writhing inhibition due to DSLET”. Besides, in test [3] (High intensity, combination with MDMA, six rats), the “mean presses at High intensity, MDMA plus Naltrindole” value amounted to 825 presses per ten minutes. Also, in test [3] (Low intensity, combination with MDMA, six rats), the “mean presses at Low intensity, MDMA plus Naltrindole” value is recorded as 98 presses per ten minutes. Moreover, the “mean presses at Medium intensity, MDMA plus Naltrindole” value in test [3] (Medium intensity, combination with MDMA, six rats) is 342 presses per ten minutes. Further, the “pressing for brain stimulation, NTI alone” value in test [3] (NTI by itself, listed as NTI) was “no demonstratable effect; also recorded: did not, by itself, reduce pressing for brain stimulation”. Further, the “pressing for brain stimulation, NTI plus MDMA” value in test [3] (listed as NTI) is “reduced the increased pressing associated with the administration of MDMA”. Besides, the “pressing for brain stimulation, NTI plus MDMA” value in test [3] (listed as naltrindole) is “pressing at the low intensity is reduced considerably and there is no reliable difference in pressing under the combination of drugs compared to placebo”. Further, in test [3] (rat, in vivo), the “pressing for brain stimulation, NTI plus amphetamine” value is “pressed somewhat less under the influence of NTI (10 mg/kg) plus amphetamine than they did under the influence of placebos; also recorded: NTI can modulate amphetamine's as well as cocaine's reinforcing effects; also recorded: reduced pressing similar to rate under placebo”; the “pressing for brain stimulation, NTI plus cocaine” value is “NTI blocked cocaine's effects; also recorded: blocked the effects of cocaine; also recorded: NTI blocked cocaine's ability to be reinforcing; also recorded: reduced rate of pressing under the influence of cocaine to that similar to rate of pressing under placebo alone; also recorded: extraordinarily effective in blocking cocaine's salient effects”; the “pressing for brain stimulation, NTI plus morphine” value is recorded as “hardly affected the effects of morphine; also recorded: negligible; also recorded: did not markedly or significantly affect rate of pressing”. Also, in test [4] (rat, in vivo), the “conditioned place preference, NTI alone” value is given as “did not significantly change from baseline to testing; also recorded: not statistically different at testing from baseline; also recorded: did not by itself establish a place preference; also recorded: did not produce place preferences or place aversions” and the “conditioned place preference, NTI plus cocaine” value was “significantly different from the cocaine group's scores but not different from the other groups' scores; also recorded: blocked cocaine's ability to produce a positive CPP; also recorded: antagonized by naltrindole”.
Consider `COC(=O)[C@H]1[C@@H](OC(=O)c2ccccc2)C[C@@H]2CC[C@H]1N2C` [Cocaine, methyl 3-(benzoyloxy)-8-methyl-8-azabicyclo[3.2.1]octane-2-carboxylate], for which the “dopamine transporter binding / dopamine reuptake inhibition” value in test [5] was “binds to the dopamine transporter and inhibits dopamine reuptake”. In test [6], the conditioned place preference entry is given as “establishes a CPP”. Further, the “pressing for brain stimulation, cocaine alone” value in test [3] is “leads to a marked increase in pressing compared to pressing under the influence of placebo”; in test [3] (listed as cocaine), “large increase in pressing; also recorded: increased pressing for stimulation”. Further, in test [7], the “cocaine self-administration, average presses without NTI” value is on record as “about 11 presses a session”. Also, the “conditioned place preference, cocaine alone” value in test [4] was “established a positive CPP; also recorded: produced a significant (asterisk) positive place preference”; in test [4] (listed as cocaine), “statistically significantly different than its baseline score and is significantly larger than the placebo-control group's scores”.
